Laboratory results taken from ChEMBL document CHEMBL4673401 (ACS Med Chem Lett, 2021).
Each block holds one compound with its values, some of them ahead of it.

Experiments:
[1] = Toxicity in humanized PD-1 mouse xenografted with mouse MC38 cells assessed as effect on body weight at 100 mg/kg, po bid for 14 days in combination with PD-1 antibody at 3 mg/kg, ip qod for 8 days; assay type: organism-based; conditions: in vivo, 336 h, time 14 day
[2] = molecular target: T1, Cytochrome P450 1A2 (Homo sapiens, UniProt P05177); test: Inhibition of CYP1A2 in human liver microsomes using phenacetin as substrate incubated for 10 mins in presence of NADPH by UHPLC-MS/MS analysis; assay type: ADME
T1 sequence (P05177 whole entry): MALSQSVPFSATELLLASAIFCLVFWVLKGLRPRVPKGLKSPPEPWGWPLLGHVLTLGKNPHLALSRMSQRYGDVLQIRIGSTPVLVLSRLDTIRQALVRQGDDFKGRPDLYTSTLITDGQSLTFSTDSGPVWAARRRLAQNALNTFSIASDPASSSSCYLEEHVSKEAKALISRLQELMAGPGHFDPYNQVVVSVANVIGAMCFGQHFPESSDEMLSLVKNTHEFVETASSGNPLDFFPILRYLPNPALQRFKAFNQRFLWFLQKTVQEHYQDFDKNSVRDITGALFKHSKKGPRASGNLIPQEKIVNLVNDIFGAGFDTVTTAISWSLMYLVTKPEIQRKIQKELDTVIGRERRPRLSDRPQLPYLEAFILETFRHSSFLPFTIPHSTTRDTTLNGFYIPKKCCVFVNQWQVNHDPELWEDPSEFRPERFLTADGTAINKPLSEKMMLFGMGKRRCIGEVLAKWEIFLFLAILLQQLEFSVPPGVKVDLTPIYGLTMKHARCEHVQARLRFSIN

[3] = molecular target: Cytochrome P450 2C19 (Homo sapiens, UniProt P33261); test: Inhibition of CYP2C19 in human liver microsomes using S-mephenytoin as substrate incubated for 10 mins in presence of NADPH by UHPLC-MS/MS analysis; assay type: ADME; conditions: read-out: INH
[4] = Clearance in Sprague-Dawley rat at 3 mg/kg, po measured up to 24 hrs; assay type: ADME, organism-based; conditions: in vivo
[5] = AUC in C57BL/6 mouse at 3 mg/kg, po measured up to 24 hrs; assay type: ADME, organism-based; design: route oral, dose 3 mg/kg, time <=24; conditions: in vivo
[6] = molecular target: Cytochrome P450 3A4 (Homo sapiens, UniProt P08684); test: Inhibition of CYP3A4 in human liver microsomes using midazolam as substrate incubated for 10 mins in presence of NADPH by UHPLC-MS/MS analysis; assay type: ADME
[7] = molecular target: Cytochrome P450 2D6 (Homo sapiens, UniProt P10635); test: Inhibition of CYP2D6 in human liver microsomes using dextromethorphan as substrate incubated for 10 mins in presence of NADPH by UHPLC-MS/MS analysis; assay type: ADME
[8] = Protein binding in dog plasma by rapid equilibrium dialysis method; assay type: ADME, cell-free, Canis lupus familiaris; conditions: read-out: PPB (converted)
[9] = Oral bioavailability in Sprague-Dawley rat at 3 mg/kg measured up to 24 hrs; assay type: ADME, organism-based; conditions: in vivo
[10] = AUC in Beagle dog at 2 mg/kg, po measured up to 24 hrs; assay type: ADME, organism-based, Canis lupus familiaris; design: route oral, dose 2 mg/kg, time <=24; conditions: in vivo
[11] = Half life in human liver microsomes; assay type: ADME, Microsome
[12] = Clearance in C57BL/6 mouse at 3 mg/kg, po measured up to 24 hrs; assay type: ADME, organism-based; conditions: in vivo
[13] = Protein binding in rat plasma by rapid equilibrium dialysis method; assay type: ADME, cell-free; conditions: read-out: PPB (converted)
[14] = Protein binding in human plasma by rapid equilibrium dialysis method; assay type: ADME, cell-free; conditions: read-out: PPB (converted)
[15] = Half life in C57BL/6 mouse at 3 mg/kg, po measured up to 24 hrs; assay type: ADME, organism-based; conditions: in vivo
[16] = Clearance in Beagle dog at 2 mg/kg, po measured up to 24 hrs; assay type: ADME, organism-based, Canis lupus familiaris; conditions: in vivo
[17] = test system: MC-38; test: Antitumor activity against mouse MC38 cells xenografted in humanized PD-1 mouse assessed as tumor growth inhibition at 100 mg/kg, po bid for 14 days in combination with PD-1 antibody at 3 mg/kg, ip qod for 8 days by digital caliper method relative to control; assay type: functional; conditions: MC-38, 336 h, time 14 day, read-out: TGI
[18] = molecular target: Tryptophan 2,3-dioxygenase (Homo sapiens, UniProt P48775); test: Inhibition of human TDO expressed in Escherichia coli Rosetta using tryptophan as substrate incubated for 1 hr by methylene blue based assay
[19] = AUC in Sprague-Dawley rat at 3 mg/kg, po measured up to 24 hrs; assay type: ADME, organism-based; design: route oral, dose 3 mg/kg, time <=24; conditions: in vivo
[20] = Half life in Sprague-Dawley rat at 3 mg/kg, po measured up to 24 hrs; assay type: ADME, organism-based; conditions: in vivo
[21] = molecular target: Voltage-gated inwardly rectifying potassium channel KCNH2 (Homo sapiens, UniProt Q12809); test: Inhibition of human ERG expressed in CHO-K1 cells at -90 mV holding potential by automated patch-clamp method; assay type: cell-based
[22] = molecular target: Cytochrome P450 2C9 (Homo sapiens, UniProt P11712); test: Inhibition of CYP2C9 in human liver microsomes using tolbutamide as substrate incubated for 10 mins in presence of NADPH by UHPLC-MS/MS analysis; assay type: ADME
[23] = Half life in rat liver microsomes; assay type: ADME, Microsome
[24] = Cmax in C57BL/6 mouse at 3 mg/kg, po measured up to 24 hrs; assay type: ADME, organism-based; design: route oral, dose 3 mg/kg, time <=24; conditions: in vivo
[25] = Cmax in Sprague-Dawley rat at 3 mg/kg, po measured up to 24 hrs; assay type: ADME, organism-based; design: route oral, dose 3 mg/kg, time <=24; conditions: in vivo
[26] = Half life in Beagle dog at 2 mg/kg, po measured up to 24 hrs; assay type: ADME, organism-based, Canis lupus familiaris; conditions: in vivo
[27] = Oral bioavailability in Beagle dog at 2 mg/kg measured up to 24 hrs; assay type: ADME, organism-based, Canis lupus familiaris; conditions: in vivo
[28] = Oral bioavailability in C57BL/6 mouse at 3 mg/kg measured up to 24 hrs; assay type: ADME, organism-based; conditions: in vivo
[29] = Cmax in Beagle dog at 2 mg/kg, po measured up to 24 hrs; assay type: ADME, organism-based, Canis lupus familiaris; design: route oral, dose 2 mg/kg, time <=24; conditions: in vivo
[30] = molecular target: T2, Indoleamine 2,3-dioxygenase 1 (Homo sapiens, UniProt P14902); test: Inhibition of IDO1 in IFNgamma-stimulated human HeLa cells using L-tryptophan as substrate measured after 48 hrs
[31] = molecular target: T2, Indoleamine 2,3-dioxygenase 1; test: Inhibition of human IDO1 expressed in Escherichia coli Rosetta using tryptophan as substrate incubated for 1 hr by methylene blue based assay

Sequence of Tryptophan 2,3-dioxygenase (P48775 whole entry): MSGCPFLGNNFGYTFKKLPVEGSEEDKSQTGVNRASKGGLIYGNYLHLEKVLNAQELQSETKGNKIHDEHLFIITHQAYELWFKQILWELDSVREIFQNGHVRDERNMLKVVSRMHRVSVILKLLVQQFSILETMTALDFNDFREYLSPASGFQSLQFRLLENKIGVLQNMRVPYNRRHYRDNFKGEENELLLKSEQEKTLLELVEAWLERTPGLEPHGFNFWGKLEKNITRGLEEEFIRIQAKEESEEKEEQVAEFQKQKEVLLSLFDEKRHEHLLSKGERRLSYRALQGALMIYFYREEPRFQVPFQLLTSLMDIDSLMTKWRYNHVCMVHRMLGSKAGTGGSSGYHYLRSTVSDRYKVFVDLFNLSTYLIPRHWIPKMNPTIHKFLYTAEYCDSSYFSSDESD
T2 sequence (P14902 whole entry): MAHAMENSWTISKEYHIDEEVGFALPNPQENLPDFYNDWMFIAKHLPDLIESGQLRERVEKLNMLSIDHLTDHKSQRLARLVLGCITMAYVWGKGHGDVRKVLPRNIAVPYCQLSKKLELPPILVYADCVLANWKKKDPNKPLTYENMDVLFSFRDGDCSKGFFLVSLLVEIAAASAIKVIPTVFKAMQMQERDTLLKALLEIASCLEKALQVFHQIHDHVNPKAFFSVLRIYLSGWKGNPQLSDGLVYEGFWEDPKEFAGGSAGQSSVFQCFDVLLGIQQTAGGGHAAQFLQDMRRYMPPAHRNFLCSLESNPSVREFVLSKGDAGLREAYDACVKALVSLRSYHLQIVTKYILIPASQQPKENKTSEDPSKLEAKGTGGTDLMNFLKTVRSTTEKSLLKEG
Sequence of Cytochrome P450 2C19 (P33261 whole entry): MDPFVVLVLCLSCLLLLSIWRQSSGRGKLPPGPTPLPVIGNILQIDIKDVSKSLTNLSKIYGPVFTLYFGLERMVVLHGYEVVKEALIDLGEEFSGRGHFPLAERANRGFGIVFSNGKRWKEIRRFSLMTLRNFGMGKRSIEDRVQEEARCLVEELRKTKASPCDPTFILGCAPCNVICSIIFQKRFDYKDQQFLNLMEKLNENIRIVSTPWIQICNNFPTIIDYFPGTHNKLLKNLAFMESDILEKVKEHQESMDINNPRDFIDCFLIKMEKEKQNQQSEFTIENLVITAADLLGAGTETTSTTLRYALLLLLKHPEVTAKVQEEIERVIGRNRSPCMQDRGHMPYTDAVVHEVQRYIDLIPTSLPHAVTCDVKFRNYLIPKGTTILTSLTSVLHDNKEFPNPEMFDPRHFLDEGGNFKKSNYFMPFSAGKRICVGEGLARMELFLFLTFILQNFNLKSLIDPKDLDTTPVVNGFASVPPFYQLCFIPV
Sequence of Cytochrome P450 2C9 (P11712 whole entry): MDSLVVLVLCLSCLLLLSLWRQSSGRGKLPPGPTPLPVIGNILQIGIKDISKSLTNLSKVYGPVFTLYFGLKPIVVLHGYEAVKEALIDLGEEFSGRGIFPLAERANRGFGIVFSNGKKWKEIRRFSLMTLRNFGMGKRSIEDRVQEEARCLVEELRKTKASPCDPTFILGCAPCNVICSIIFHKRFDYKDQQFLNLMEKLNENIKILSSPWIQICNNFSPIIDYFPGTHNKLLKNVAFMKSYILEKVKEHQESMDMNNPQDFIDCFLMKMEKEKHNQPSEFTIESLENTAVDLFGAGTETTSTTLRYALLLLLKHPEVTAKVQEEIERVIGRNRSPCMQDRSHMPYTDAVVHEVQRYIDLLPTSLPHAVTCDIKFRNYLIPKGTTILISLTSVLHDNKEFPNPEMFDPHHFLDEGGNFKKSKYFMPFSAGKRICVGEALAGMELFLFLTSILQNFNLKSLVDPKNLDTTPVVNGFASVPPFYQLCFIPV
Sequence of Cytochrome P450 3A4 (P08684 whole entry): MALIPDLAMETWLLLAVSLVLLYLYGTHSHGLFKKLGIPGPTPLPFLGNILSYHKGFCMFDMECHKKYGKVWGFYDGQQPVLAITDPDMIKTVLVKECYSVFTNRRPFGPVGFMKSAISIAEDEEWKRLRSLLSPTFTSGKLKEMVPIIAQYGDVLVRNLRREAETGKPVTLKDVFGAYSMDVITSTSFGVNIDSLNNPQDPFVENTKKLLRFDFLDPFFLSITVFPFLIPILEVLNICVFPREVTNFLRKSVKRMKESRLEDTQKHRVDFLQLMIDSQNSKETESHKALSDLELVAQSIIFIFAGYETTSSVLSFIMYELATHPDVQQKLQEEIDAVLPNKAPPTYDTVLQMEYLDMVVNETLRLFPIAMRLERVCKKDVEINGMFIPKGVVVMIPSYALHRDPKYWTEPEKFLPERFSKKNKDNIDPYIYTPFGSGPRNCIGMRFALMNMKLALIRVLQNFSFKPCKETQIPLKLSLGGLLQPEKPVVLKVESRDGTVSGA
Sequence of Voltage-gated inwardly rectifying potassium channel KCNH2 (Q12809 whole entry): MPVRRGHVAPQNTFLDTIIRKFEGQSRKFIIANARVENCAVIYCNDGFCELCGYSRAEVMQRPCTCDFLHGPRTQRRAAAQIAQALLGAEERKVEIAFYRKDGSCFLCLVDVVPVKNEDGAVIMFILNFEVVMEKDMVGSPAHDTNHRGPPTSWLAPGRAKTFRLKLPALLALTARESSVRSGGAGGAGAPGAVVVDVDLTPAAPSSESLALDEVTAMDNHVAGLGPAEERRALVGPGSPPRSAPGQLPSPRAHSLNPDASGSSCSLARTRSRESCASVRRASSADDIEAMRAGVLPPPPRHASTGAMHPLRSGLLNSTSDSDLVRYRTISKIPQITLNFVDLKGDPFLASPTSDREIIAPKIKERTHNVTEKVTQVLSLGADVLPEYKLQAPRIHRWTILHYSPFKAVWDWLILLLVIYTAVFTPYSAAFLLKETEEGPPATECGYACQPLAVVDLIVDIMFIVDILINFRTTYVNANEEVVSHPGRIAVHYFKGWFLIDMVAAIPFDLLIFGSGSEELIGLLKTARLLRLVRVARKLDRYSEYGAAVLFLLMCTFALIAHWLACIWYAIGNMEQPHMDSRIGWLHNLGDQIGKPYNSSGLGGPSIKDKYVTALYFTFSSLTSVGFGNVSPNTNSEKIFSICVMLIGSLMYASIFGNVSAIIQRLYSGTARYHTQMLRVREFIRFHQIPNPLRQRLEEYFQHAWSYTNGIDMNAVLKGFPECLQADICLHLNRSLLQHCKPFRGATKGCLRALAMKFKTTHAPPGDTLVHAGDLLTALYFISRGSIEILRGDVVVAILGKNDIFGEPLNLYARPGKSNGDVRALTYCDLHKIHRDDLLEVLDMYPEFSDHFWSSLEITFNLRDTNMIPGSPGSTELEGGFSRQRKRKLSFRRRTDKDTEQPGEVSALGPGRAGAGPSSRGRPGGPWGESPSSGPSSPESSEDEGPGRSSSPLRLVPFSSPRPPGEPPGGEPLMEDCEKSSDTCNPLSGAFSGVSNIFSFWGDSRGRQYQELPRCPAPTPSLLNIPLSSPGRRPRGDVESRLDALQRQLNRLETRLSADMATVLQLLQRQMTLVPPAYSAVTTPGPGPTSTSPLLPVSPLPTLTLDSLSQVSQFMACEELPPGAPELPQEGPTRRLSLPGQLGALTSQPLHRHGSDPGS
Sequence of Cytochrome P450 2D6 (P10635 whole entry): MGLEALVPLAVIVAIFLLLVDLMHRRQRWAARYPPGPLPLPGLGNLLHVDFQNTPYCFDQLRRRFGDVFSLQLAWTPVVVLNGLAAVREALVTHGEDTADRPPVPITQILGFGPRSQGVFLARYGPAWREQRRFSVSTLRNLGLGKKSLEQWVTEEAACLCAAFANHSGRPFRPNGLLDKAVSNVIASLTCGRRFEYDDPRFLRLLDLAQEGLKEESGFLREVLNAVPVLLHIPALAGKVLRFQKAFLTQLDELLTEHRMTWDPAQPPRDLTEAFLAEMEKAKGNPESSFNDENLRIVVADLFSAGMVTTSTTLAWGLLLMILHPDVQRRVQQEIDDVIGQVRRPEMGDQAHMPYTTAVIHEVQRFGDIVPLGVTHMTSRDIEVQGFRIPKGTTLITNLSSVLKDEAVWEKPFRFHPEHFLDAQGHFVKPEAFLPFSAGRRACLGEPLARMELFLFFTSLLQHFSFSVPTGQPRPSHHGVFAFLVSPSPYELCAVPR

SMILES: NS(=O)(=O)NCCNc1nonc1C(=NO)Nc1ccc(F)c(Br)c1 [EPACADOSTAT]
Activity [1]: Non-Toxic
INH [2]: > 10 µM
IC50 [3]: > 10 µM
clearance [4]: 29 mL/min/kg
AUC at 24 h [5]: 1020 ng·h/mL
INH [6]: > 10 µM
INH [7]: > 10 µM
fraction unbound [8]: 0.025
bioavailability [9]: 55%
AUC at 24 h [10]: 676 ng·h/mL
half-life [11]: 293 min
clearance [12]: 49.2 mL/min/kg
fraction unbound [13]: 0.03
fraction unbound [14]: 0.015
half-life [15]: 145 min
clearance [16]: 36.6 mL/min/kg
inhibition in vivo at 100 mg/kg [17]: 66.9%
IC50 [18]: > 100 µM
AUC at 24 h [19]: 807 ng·h/mL
half-life [20]: 164 min
INH [21]: > 30 µM
INH [22]: > 10 µM
half-life [23]: 73.1 min
Cmax [24]: 253 ng/mL
Cmax [25]: 133 ng/mL
half-life [26]: 302 min
bioavailability [27]: 50%
bioavailability [28]: 44%
Cmax [29]: 245 ng/mL

SMILES: Cn1cc(-c2ccc(NC(=O)N3CCC(C(=O)/C(=N/O)Nc4ccc(F)c(Br)c4)CC3)cc2)cn1
IC50 [30]: 15 nM
AUC at 24 h [10]: 255 ng·h/mL
IC50 [31]: 14 nM
IC50 [18]: > 100 µM
AUC at 24 h [19]: 1030 ng·h/mL
half-life [20]: 305 min
Cmax [25]: 173 ng/mL
half-life [26]: 66 min
Cmax [29]: 140 ng/mL

SMILES: O=C(Nc1ccccc1)[C@H]1CC[C@H](C(=O)/C(=N/O)Nc2ccc(F)c(Br)c2)CC1
IC50 [30]: 197 nM
IC50 [31]: 150 nM
IC50 [18]: > 100 µM

SMILES: O=C(/C(=N/O)Nc1ccc(F)c(Br)c1)c1ccco1
IC50 [30]: 1680 nM
IC50 [31]: 467 nM
IC50 [18]: > 100 µM

SMILES: O=C(/C(=N/O)Nc1ccc(F)c(Br)c1)C1CCN(C(=O)c2ccccc2)CC1
IC50 [30]: 281 nM
IC50 [31]: 106 nM
IC50 [18]: > 100 µM

Now those with a lower IC50 [18], led by results:

IC50 [30]: 28 nM
IC50 [31]: 43 nM
IC50 [18]: 89.8 µM
SMILES: O=C(/C(=N/O)Nc1ccc(F)c(Br)c1)C1CCN(C(=O)NCc2ccccc2)CC1

IC50 [30]: 204 nM
IC50 [31]: 80 nM
IC50 [18]: 81 µM
SMILES: O=C(NC[C@H]1CC[C@H](C(=O)/C(=N/O)Nc2ccc(F)c(Br)c2)CC1)c1ccccc1

IC50 [30]: 150 nM
IC50 [31]: 98 nM
IC50 [18]: 65.7 µM
SMILES: O=C(/C(=N/O)Nc1ccc(F)c(Br)c1)C1CCN(S(=O)(=O)Nc2ccccc2)CC1

IC50 [30]: 272 nM
IC50 [31]: 117 nM
IC50 [18]: 63.1 µM
SMILES: O=C(/C(=N/O)Nc1ccc(F)c(Br)c1)c1cccs1
